The values below come from article PMC6554660 (Frontiers in Pharmacology, 2019).

Entries after “also recorded” stand apart in the source; their conditions may differ. Where a SMILES comes first, the peptide text is derived from it. Bridges are numbered along the chain shown (N, C = ends).

The target in experiment [1] is rat α3β2 nAChR (Rattus norvegicus, UniProt P04757+P12390). The experiment can be described thus: cell-based.
In experiment [2] the target is rat α7 nAChR (Rattus norvegicus, UniProt Q05941). As to the kind of experiment: cell-based. It is filed as cell-based.
The conditions of experiment [3]: in vivo; cited from earlier work.

Sequence of rat α7 nAChR (Q05941 23-502 limits assumed): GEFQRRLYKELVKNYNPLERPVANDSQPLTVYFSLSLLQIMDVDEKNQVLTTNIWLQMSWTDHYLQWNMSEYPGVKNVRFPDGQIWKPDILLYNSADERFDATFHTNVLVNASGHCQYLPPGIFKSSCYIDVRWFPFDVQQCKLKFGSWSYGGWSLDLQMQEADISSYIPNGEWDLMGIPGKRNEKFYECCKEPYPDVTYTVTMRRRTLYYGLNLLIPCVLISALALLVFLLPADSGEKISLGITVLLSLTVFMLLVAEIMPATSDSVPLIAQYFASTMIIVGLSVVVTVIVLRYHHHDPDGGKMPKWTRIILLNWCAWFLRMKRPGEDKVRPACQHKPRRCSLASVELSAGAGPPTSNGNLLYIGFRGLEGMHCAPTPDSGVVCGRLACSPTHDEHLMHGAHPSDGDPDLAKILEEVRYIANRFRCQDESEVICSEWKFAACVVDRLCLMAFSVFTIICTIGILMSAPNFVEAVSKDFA
Sequence of rat α3β2 nAChR (P04757 26-499 limits assumed): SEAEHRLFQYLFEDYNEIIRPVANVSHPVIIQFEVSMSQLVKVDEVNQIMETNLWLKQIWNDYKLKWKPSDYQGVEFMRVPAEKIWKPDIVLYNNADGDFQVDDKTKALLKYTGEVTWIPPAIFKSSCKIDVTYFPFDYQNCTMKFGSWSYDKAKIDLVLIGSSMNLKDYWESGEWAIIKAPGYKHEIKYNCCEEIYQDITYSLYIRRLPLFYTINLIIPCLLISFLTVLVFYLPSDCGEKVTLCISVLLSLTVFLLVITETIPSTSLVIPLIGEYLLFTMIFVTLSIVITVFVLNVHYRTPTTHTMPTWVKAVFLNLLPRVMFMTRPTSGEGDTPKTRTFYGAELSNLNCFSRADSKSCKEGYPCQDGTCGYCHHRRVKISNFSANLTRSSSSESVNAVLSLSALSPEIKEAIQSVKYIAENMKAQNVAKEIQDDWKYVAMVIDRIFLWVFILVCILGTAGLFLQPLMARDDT
Sequence of rat α3β2 nAChR (P12390 25-500 limits assumed): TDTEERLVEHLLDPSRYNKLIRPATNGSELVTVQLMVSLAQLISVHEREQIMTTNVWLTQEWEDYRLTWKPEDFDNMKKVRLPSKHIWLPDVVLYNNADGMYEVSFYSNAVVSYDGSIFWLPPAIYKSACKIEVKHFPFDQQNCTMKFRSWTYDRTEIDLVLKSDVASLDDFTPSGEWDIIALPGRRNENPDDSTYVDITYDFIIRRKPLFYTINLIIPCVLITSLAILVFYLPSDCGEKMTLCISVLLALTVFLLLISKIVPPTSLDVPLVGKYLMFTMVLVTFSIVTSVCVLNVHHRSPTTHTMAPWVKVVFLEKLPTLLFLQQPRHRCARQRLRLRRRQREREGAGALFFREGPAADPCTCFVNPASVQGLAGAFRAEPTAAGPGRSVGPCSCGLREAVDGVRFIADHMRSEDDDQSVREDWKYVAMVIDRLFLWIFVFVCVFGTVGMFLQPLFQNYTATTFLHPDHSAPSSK

Consider `CC[C@H](C)[C@@H]1NC(=O)[C@@H]2CSSC[C@H](NC(=O)[C@@H](NC(=O)CN)CSSC[C@@H](C(=O)O)NC(=O)[C@H](CC(C)C)NC(=O)[C@H](CC(=O)O)NC(=O)[C@@H]3CCCN3C(=O)[C@H](CC(N)=O)NC(=O)[C@H](CC(N)=O)NC(=O)[C@H](C)NC1=O)C(=O)N[C@@H](CO)C(=O)N[C@@H](CCCNC(=N)N)C(=O)N1CCC[C@H]1C(=O)N1CCC[C@H]1C(=O)N2` [Recombinant TxIA], for which the “nH (Hill coefficient)” value in experiment [1] is listed as −1.54.

Regarding `CC[C@H](C)[C@@H]1NC(=O)[C@@H]2CSSC[C@H](NC(=O)[C@@H](NC(=O)CN)CSSC[C@@H](C(=O)O)NC(=O)[C@H](CC(C)C)NC(=O)[C@H](CC(=O)O)NC(=O)[C@@H]3CCCN3C(=O)[C@H](CC(N)=O)NC(=O)[C@H](CC(N)=O)NC(=O)[C@H](C)NC1=O)C(=O)N[C@@H](CO)C(=O)N[C@@H](CC(=O)O)C(=O)N1CCC[C@H]1C(=O)N1CCC[C@H]1C(=O)N2` [Recombinant [R5D]TxIA] (H-GCCSDPPCIANNPDLC-OH; disulfide 2-16, 3-8), in experiment [2], half-maximal inhibition (IC50) required 2.91 µM, the “activity at α7 nAChR (in words)” value is “almost completely reversed; also recorded: could rescue the activity at the α7 nAChR at a similar level to that of globular TxIA” and the “nH (Hill coefficient)” value is given as −1.24. For the same compound, in experiment [1], 3.54 µM corresponded to half-maximal inhibition (IC50) and the “nH (Hill coefficient)” value is given as −1.38.

In the case of `CC[C@H](C)[C@@H]1NC(=O)[C@@H]2CSSC[C@H](NC(=O)[C@@H](NC(=O)CN)CSSC[C@@H](C(=O)O)NC(=O)[C@H](CC(C)C)NC(=O)[C@H](CC(=O)O)NC(=O)[C@@H]3CCCN3C(=O)[C@H](CC(N)=O)NC(=O)[C@H](CC(N)=O)NC(=O)[C@H](C)NC1=O)C(=O)N[C@@H](CO)C(=O)N[C@@H](CC(N)=O)C(=O)N1CCC[C@H]1C(=O)N1CCC[C@H]1C(=O)N2` [Recombinant [R5N]TxIA] (H-GCCSNPPCIANNPDLC-OH; disulfide 2-16, 3-8), in experiment [2], the “activity at α7 nAChR (in words)” value is “but not when an asparagine residue was introduced in this position”. Further, in experiment [1], the midpoint of inhibition, the IC50, lay at 1.83 µM and the “nH (Hill coefficient)” value is −1.36.

`CC[C@H](C)[C@@H]1NC(=O)[C@@H]2CSSC[C@H](NC(=O)CN)C(=O)N[C@@H](CSSC[C@@H](C(N)=O)NC(=O)[C@H](CC(C)C)NC(=O)[C@H](CC(=O)O)NC(=O)[C@@H]3CCCN3C(=O)[C@H](CC(N)=O)NC(=O)[C@H](CC(N)=O)NC(=O)[C@H](C)NC1=O)C(=O)N[C@@H](CO)C(=O)N[C@@H](CCCNC(=N)N)C(=O)N1CCC[C@H]1C(=O)N1CCC[C@H]1C(=O)N2` [Synthetic TxIA, reference compound]: the concentration for half-maximal inhibition (IC50) in experiment [2] is 1.81 µM; in experiment [1], 0.0046 µM.

For Vc1.1, the analgesic properties entry in experiment [3] was “potent analgesic properties”.

The IC50 is the concentration that inhibits the measured activity by half. Read a low IC50 as higher potency.
